Test results: ChEMBL document CHEMBL1201862, “PubChem BioAssay data set” (2004)
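Cells were grown in 96-well plates and exposed to each compound for 48 hours at five concentrations; endpoints were interpolated linearly between bracketing concentrations, or set to the highest concentration if not reached. GI50 is the concentration that inhibits growth by half.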 Activity calls are given as the source filed them. Rule as the data show it: active = GI50 up to about 1.1 µM and inactive = higher.

Key:
Test in all cases: DTP human tumour cell line panel, 48 h
[1] = test system: PC-3
[2] = test system: NCI-H460
[3] = test system: MDA-MB-231
[4] = test system: HT-29
[5] = test system: HCT-116
[6] = test system: A549
[7] = test system: SF-295
[8] = test system: CCRF-CEM
[9] = test system: ACHN
[10] = test system: HCC 2998
[11] = test system: HL-60
[12] = test system: OVCAR-4
[13] = test system: OVCAR-3
[14] = test system: Hs-578T
[15] = test system: SN12C
[16] = test system: COLO 205
[17] = test system: SF-268
[18] = test system: RXF 393
[19] = test system: MCF7
[20] = test system: IGROV-1
[21] = test system: A498
[22] = test system: K562
[23] = test system: SK-MEL-5
[24] = test system: SNB-19
[25] = test system: NCI-H522
[26] = test system: NCI/ADR-RES
[27] = test system: HCT-15
[28] = test system: HOP-62
[29] = test system: UACC-257
[30] = test system: EKVX
[31] = test system: NCI-H226
[32] = test system: KM12
[33] = test system: U-251
[34] = test system: SK-MEL-28
[35] = test system: SW-620
[36] = test system: Malme-3M
[37] = test system: UO-31
[38] = test system: SR
[39] = test system: HOP-92
[40] = test system: CAKI-1
[41] = test system: MDA-MB-435
[42] = test system: MOLT-4
[43] = test system: BT-549
[44] = test system: SF-539
[45] = test system: DU-145
[46] = test system: RPMI-8226
[47] = test system: LOX IMVI
[48] = test system: MDA-N
[49] = test system: 786-0
[50] = test system: NCI-H23
[51] = test system: OVCAR-5
[52] = test system: SNB-75
[53] = test system: OVCAR-8
[54] = test system: M14
[55] = test system: T47D
[56] = test system: TK-10
[57] = test system: SK-OV-3
[58] = test system: UACC-62
[59] = test system: SK-MEL-2

Cc1ccc2oc(=O)c(C(=O)Nc3nc(C45CC6CC(CC(C6)C4)C5)cs3)cc2c1
GI50 [1]: > 100 µM (inactive)
GI50 [2]: > 100 µM (inactive)
GI50 [3]: > 100 µM (inactive)
GI50 [4]: > 100 µM (inactive)
GI50 [5]: > 100 µM (inactive)
GI50 [6]: > 100 µM (inactive)
GI50 [7]: > 100 µM (inactive)
GI50 [8]: > 100 µM (inactive)
GI50 [9]: > 100 µM (inactive)
GI50 [10]: > 100 µM (inactive)
GI50 [11]: > 100 µM (inactive)
GI50 [12]: > 100 µM (inactive)
GI50 [13]: > 100 µM (inactive)
GI50 [14]: > 100 µM (inactive)
GI50 [15]: > 100 µM (inactive)
GI50 [16]: > 100 µM (inactive)
GI50 [17]: > 100 µM (inactive)
GI50 [18]: > 100 µM (inactive)
GI50 [19]: > 100 µM (inactive)
GI50 [20]: > 100 µM (inactive)
GI50 [21]: > 100 µM (inactive)
GI50 [22]: > 100 µM (inactive)
GI50 [23]: > 100 µM (inactive)
GI50 [24]: > 100 µM (inactive)
GI50 [25]: > 100 µM (inactive)
GI50 [26]: > 100 µM (inactive)
GI50 [27]: > 100 µM
GI50 [28]: > 100 µM (inactive)
GI50 [29]: > 100 µM (inactive)
GI50 [30]: > 100 µM (inactive)
GI50 [31]: > 100 µM (inactive)
GI50 [32]: > 100 µM (inactive)
GI50 [33]: > 100 µM (inactive)
GI50 [34]: > 100 µM (inactive)
GI50 [35]: > 100 µM (inactive)
GI50 [36]: > 100 µM (inactive)
GI50 [37]: > 100 µM (inactive)
GI50 [38]: > 100 µM (inactive)
GI50 [39]: > 100 µM (inactive)
GI50 [40]: > 100 µM (inactive)
GI50 [41]: > 100 µM (inactive)
GI50 [42]: > 100 µM (inactive)
GI50 [43]: > 100 µM (inactive)
GI50 [44]: > 100 µM (inactive)
GI50 [45]: > 100 µM (inactive)
GI50 [46]: > 100 µM (inactive)
GI50 [47]: > 100 µM (inactive)
GI50 [48]: > 100 µM (inactive)
GI50 [49]: > 100 µM (inactive)
GI50 [50]: > 100 µM (inactive)
GI50 [51]: > 100 µM (inactive)
GI50 [52]: > 100 µM (inactive)
GI50 [53]: > 100 µM (inactive)

Cn1cnnc1SC(F)(F)c1nc2ccccc2o1
GI50 [1]: > 100 µM (inactive)
GI50 [2]: > 100 µM (inactive)
GI50 [3]: > 100 µM (inactive)
GI50 [54]: > 100 µM (inactive)
GI50 [4]: > 100 µM (inactive)
GI50 [5]: > 100 µM (inactive)
GI50 [6]: > 100 µM (inactive)
GI50 [7]: > 100 µM (inactive)
GI50 [8]: > 100 µM (inactive)
GI50 [9]: > 100 µM (inactive)
GI50 [55]: > 100 µM (inactive)
GI50 [10]: > 100 µM (inactive)
GI50 [12]: > 100 µM (inactive)
GI50 [13]: > 100 µM (inactive)
GI50 [56]: > 100 µM (inactive)
GI50 [57]: > 100 µM (inactive)
GI50 [15]: > 100 µM (inactive)
GI50 [16]: > 100 µM (inactive)
GI50 [17]: > 100 µM (inactive)
GI50 [18]: > 100 µM (inactive)
GI50 [19]: > 100 µM (inactive)
GI50 [20]: > 100 µM (inactive)
GI50 [21]: > 100 µM (inactive)
GI50 [22]: > 100 µM (inactive)
GI50 [23]: > 100 µM (inactive)
GI50 [25]: > 100 µM (inactive)
GI50 [26]: > 100 µM (inactive)
GI50 [27]: > 100 µM
GI50 [28]: > 100 µM (inactive)
GI50 [29]: > 100 µM (inactive)
GI50 [31]: > 100 µM (inactive)
GI50 [32]: > 100 µM (inactive)
GI50 [33]: > 100 µM (inactive)
GI50 [34]: > 100 µM (inactive)
GI50 [35]: > 100 µM (inactive)
GI50 [36]: > 100 µM (inactive)
GI50 [37]: > 100 µM (inactive)
GI50 [38]: > 100 µM (inactive)
GI50 [39]: > 100 µM (inactive)
GI50 [40]: > 100 µM (inactive)
GI50 [41]: > 100 µM (inactive)
GI50 [42]: > 100 µM (inactive)
GI50 [43]: > 100 µM (inactive)
GI50 [44]: > 100 µM (inactive)
GI50 [45]: > 100 µM (inactive)
GI50 [46]: > 100 µM (inactive)
GI50 [48]: > 100 µM (inactive)
GI50 [49]: > 100 µM (inactive)
GI50 [50]: > 100 µM (inactive)
GI50 [51]: > 100 µM (inactive)
GI50 [52]: > 100 µM (inactive)
GI50 [58]: > 100 µM (inactive)
GI50 [59]: > 100 µM (inactive)
GI50 [53]: > 100 µM (inactive)
